≈ marks a conversion by molar mass, not a printed value. Where two headings read alike, the source gives them in different places.
Key:
[1] = test system: Trichostrongylus columbriformis; test: In vivo efficacy against T. colubriformis in infected gerbils; conditions: gerbils infected with T. colubriformis; single oral dose of 50 mg/kg by gavage; worm counts four days post-treatment; % mortality as compared to negative control
Method in brief: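 Gerbils infected with ~800 L3/mL larvae were treated one week later by gavage with a single 50 mg/kg oral dose in PEG 400:DMSO (1:2 v/v), 3 animals per group. Necropsy four days post-treatment, with worms counted under stereoscopes.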

[2] = Toxicity in treated gerbils (deaths or significant weight loss); format: in vivo; parameters: key: +: Toxicity is indicated for those groups having one or more animals expired; conditions: single oral dose of 50 mg/kg, groups of 3
Procedure: In this evaluation, gerbils are infected with Trichostrongylus columbriformis infective larvae at a concentration of approximately 800 L3/mL. Larvae for gerbil infections are cultured from feces from sheep previously infected with T. colubriformis. One week post infection, test compounds are administered by gavage as a single oral dose of 50 mg/kg of body weight. For each group of 3 gerbils, 10 mg of test compound are dissolved in 2 mL of PEG 400:DMSO (1:2 v/v) and each animal is administered the test solution at a rate of 0.1 mL/10 g of body weight. […] All animals are observed daily for morbidity and mortality. Four days post-treatment, all animals are weighed and necropsied. Worm counts are conducted with the use of stereoscopes and counters.

C. elegans = test: Efficacy against nematodes (C. elegans motility rating); parameters: key: 0: no effect; 7: reduced movement in 24 h; 8: dead in 24 h; 9: dead in 4 h; conditions: dose 100 ppm, observations at 4 h and 24 h postimmersion
Method in brief: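 Mixed-stage C. elegans (~50 per well, L1 to adult) in M9 buffer exposed to test compound at 100 ppm, 150 ppm or 200 μM final. Motility of larvae and adults scored under dissecting microscope at 4 h and 24 h.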

[3] = molecular target: E. coli Uridine-diphosphate-N-acetvimuramoyl: L-alanine lipase, MurC (Escherichia coli, UniProt P17952); test: Inhibitory activity against MurC (E. coli); format: biochemical; conditions: (E) E. coli enzyme; read-out: MurC IC50 (converted)
E. coli Uridine-diphosphate-N-acetvimuramoyl: L-alanine lipase, MurC, sequence (P17952 whole entry): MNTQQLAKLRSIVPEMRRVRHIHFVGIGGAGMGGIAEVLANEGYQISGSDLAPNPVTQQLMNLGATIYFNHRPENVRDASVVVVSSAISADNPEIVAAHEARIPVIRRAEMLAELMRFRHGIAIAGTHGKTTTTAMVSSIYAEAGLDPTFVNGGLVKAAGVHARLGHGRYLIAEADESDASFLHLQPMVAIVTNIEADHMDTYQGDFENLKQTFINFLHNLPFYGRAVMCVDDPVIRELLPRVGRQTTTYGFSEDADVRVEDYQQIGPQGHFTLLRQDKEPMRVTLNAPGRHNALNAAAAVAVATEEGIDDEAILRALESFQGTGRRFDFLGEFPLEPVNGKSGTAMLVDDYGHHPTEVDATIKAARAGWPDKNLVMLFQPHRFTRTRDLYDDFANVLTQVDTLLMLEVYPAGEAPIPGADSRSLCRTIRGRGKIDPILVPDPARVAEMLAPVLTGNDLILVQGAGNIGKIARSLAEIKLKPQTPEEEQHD

staphylococci = test: Minimum inhibitory concentration, microdilution broth method, staphylococci; format: cell-based; conditions: Staphylococcus aureus, Mueller-Hinton broth, 18-22 hours at 35° C.
Method in brief: (§1)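 Recent clinical isolates, some resistant to methicillin, penicillin and/or vancomycin, were tested by the broth microdilution method of NCCLS Approved Standard M7-A5 2000. Mueller-Hinton broth served for staphylococci and enterococci, while streptococci received the same broth supplemented with 5% horse blood.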

[4] = molecular target: E. coli UDP-N-acetylglucosamine enolpyruvoyl transferase, MurA (Escherichia coli, UniProt P0A749); test: biochemical; conditions: (E) E. coli enzyme
E. coli UDP-N-acetylglucosamine enolpyruvoyl transferase, MurA, sequence (P0A749 whole entry): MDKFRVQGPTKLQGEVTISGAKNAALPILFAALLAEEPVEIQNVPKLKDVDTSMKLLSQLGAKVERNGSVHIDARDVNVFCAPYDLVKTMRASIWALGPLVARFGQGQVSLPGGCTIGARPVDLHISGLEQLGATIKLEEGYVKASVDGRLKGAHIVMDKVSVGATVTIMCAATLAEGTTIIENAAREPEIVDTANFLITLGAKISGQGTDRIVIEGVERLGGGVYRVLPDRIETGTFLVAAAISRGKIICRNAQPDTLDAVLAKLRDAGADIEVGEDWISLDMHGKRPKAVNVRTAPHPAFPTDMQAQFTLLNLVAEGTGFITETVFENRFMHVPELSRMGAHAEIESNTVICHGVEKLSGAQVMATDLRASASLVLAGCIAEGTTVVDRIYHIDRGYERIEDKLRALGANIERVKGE
Method in brief: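 Compound in DMSO/water pre-incubated 10 min at 37° C with enzyme in 50 mM Tris/HCl pH 8.0, 5 mM DTT, 20% glycerol. After Tris/BME and assay buffer were added, OD340 was read at start. Reaction ran 1 hr at 37° C, then stop solution was added with 30 min colour development.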

enterococci = test: Minimum inhibitory concentration, microdilution broth method, enterococci; format: cell-based; conditions: Enterococcus faecalis, Mueller-Hinton broth, 18-22 hours at 35° C.
Method in brief: as §1

[5] = molecular target: E. coli Uridine-diphosphate-N-acetylmuramoyl-L-alanine: D-glutamate liease, MurD (Escherichia coli, UniProt P14900); test: biochemical; conditions: (E) E. coli enzyme
E. coli Uridine-diphosphate-N-acetylmuramoyl-L-alanine: D-glutamate liease, MurD, sequence (P14900 whole entry): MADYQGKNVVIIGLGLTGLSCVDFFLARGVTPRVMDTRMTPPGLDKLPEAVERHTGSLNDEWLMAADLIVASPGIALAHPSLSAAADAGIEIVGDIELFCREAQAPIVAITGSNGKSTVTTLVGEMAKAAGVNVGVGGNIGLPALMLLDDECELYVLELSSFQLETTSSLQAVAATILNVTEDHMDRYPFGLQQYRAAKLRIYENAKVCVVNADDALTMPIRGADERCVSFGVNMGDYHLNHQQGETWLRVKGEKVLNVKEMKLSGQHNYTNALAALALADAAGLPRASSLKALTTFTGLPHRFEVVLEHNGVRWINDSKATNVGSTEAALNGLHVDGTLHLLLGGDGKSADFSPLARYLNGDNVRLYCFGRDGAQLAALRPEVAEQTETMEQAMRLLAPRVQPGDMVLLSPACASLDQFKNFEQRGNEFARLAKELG
Method in brief: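 Final buffer 83 mM Tris/HCl pH 8.0, 50 mM MgCl2, 2 mM ATP. Compounds from 10 mg/mL DMSO stocks diluted to 100 μg/mL in 50 mM Tris/HCl pH 8.5 (working solution, not final assay level).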

[6] = molecular target: E. coli Enopyruvyl-UPD-N-acetylglucosamine reductase, Mur B (Escherichia coli, UniProt P08373); test: biochemical; conditions: (E) E. coli enzyme; read-out: MurB IC50 (converted)
E. coli Enopyruvyl-UPD-N-acetylglucosamine reductase, Mur B, sequence (P08373 whole entry): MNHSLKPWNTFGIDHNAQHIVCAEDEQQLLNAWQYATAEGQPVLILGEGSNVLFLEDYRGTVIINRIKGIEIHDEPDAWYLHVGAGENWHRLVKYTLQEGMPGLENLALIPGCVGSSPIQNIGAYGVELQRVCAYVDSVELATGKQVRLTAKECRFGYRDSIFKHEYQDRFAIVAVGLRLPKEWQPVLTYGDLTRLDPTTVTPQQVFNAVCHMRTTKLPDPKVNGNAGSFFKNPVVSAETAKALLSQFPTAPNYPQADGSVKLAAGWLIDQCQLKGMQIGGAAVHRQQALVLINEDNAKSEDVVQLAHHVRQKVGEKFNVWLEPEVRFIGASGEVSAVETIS

Streptococci = test: Minimum inhibitory concentration, microdilution broth method, streptococci; format: cell-based; conditions: S. pneumo GC 1894; Mueller-Hinton broth with 5% horse blood, 18-22 hours at 35° C.
Method in brief: as §1

[7] = molecular target: T1, S. aureus Uridine-diphosphate-N-acetylmuramoyl-L-alanine: D-glutamate liease, MurD (Staphylococcus aureus, UniProt Q2FZ92); test: biochemical; conditions: (S) S. aureus enzyme
T1 sequence (Q2FZ92 1-449): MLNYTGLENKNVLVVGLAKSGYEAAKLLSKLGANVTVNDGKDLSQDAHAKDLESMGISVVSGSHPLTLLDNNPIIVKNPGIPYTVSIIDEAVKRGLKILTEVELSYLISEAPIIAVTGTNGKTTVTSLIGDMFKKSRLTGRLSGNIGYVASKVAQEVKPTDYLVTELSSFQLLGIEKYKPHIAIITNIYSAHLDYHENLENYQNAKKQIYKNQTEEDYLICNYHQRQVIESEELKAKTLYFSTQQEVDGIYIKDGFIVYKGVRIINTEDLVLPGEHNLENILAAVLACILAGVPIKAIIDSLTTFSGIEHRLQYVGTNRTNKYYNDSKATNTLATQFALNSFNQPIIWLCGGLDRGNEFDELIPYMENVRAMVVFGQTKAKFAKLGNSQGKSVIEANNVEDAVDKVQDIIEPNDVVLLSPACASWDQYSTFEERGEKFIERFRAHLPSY
Method in brief: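 MurD, which catalyses the fourth step of cell wall biosynthesis, was tested for inhibition by compounds. Compounds were made up as 10 mg/mL DMSO stocks and diluted to 100 μg/mL in 50 mM Tris/HCl, pH 8.5.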

[8] = S. aureus GC 1131, read-out: MIC S. aureus GC 1131
[9] = S. aureus GC 4543, read-out: MIC S. aureus GC 4543
[10] = E. faecalis GC 2242, read-out: MIC E. faecalis GC 2242
[11] = E. faecalis GC 4555, read-out: MIC E. faecalis GC 4555

Row | Compound | Mortality [1] [%] | Toxicity [2] | Rating (C. elegans) | IC50 [3] [µM] | melting point | MIC (staphylococci; [8]) [µg/mL] | MIC (staphylococci; [9]) [µg/mL] | IC50 [4] [µM] | MIC (enterococci; [10]) [µg/mL] | MIC (enterococci; [11]) [µg/mL] | IC50 [5] [µM] | IC50 [6] [µM] | MIC (Streptococci) [µg/mL] | IC50 [7] [µM]
1 | COc1cc(/C=C2\OC(=O)C(c3cccc(Cl)c3)=C2O)ccc1-c1ccccc1C(F)(F)F | 29.50 | + | – | – | – | – | – | – | – | – | – | – | – | –
2 | O=C1OC(=Cc2ccc(F)cc2)C(O)=C1c1ccc(C(F)(F)F)cc1 (mixture of isomers) [R=H; R1=4-CF3—C6H4**; R2=4-F—C6H4] | 95.80 | + | 9 | – | – | – | – | – | – | – | – | – | – | –
3 | COc1ccc(C2=C(O)/C(=C/c3ccc4ccccc4c3)OC2=O)cc1 [Example 7] | – | – | – | 37.8 | 257 to 258.5 °C | 32 (≈ 92.9 µM) | 64 (≈ 186 µM) | > 72.6 | 32 (≈ 92.9 µM) | 64 (≈ 186 µM) | > 72.6 | 61 | 2 (≈ 5.81 µM) | –
4 | COc1ccc(C2=C(O)/C(=C/c3ccc(-c4ccccc4)cc3)OC2=O)cc1 [Example 9] | – | – | – | > 67.5 | 266 to 269 °C | 32 (≈ 86.4 µM) | > 128 | > 67.5 | 8 (≈ 21.6 µM) | 64 (≈ 173 µM) | > 67.5 | 43.2 | < 0.125 | –
5 | Cc1ccc(/C=C2\OC(=O)C(c3cccc(C(F)(F)F)c3)=C2O)s1 [Example 12] | – | – | – | 42.6 | 249 to 251 °C | 64 (≈ 182 µM) | 64 (≈ 182 µM) | > 71 | 64 (≈ 182 µM) | > 128 | > 71 | > 71 | 2 (≈ 5.68 µM) | –
6 | Cc1ccc(/C=C2\OC(=O)C(c3ccc4ccccc4c3)=C2O)s1 [Example 41] | – | – | – | 38.9 | 144 to 145 °C (dec.) | 32 (≈ 95.7 µM) | 64 (≈ 191 µM) | > 74.8 | 32 (≈ 95.7 µM) | 64 (≈ 191 µM) | > 74.8 | > 74.8 | 32 (≈ 95.7 µM) | –
7 | O=C1O/C(=C\c2cccc3ccccc23)C(O)=C1c1ccc2ccccc2c1 [Example 44] | – | – | – | 16.5 | 205 to 207 °C | 4 (≈ 11 µM) | 8 (≈ 22 µM) | 49.4 | 8 (≈ 22 µM) | 16 (≈ 43.9 µM) | > 68.6 | 19.2 | 1 (≈ 2.74 µM) | –
8 | O=C1O/C(=C\c2ccc(Cl)cc2)C(O)=C1c1cccc2ccccc12 [Example 46] | – | – | – | 45.9 | 235 to 237 °C | 64 (≈ 183 µM) | 32 (≈ 91.7 µM) | > 71.7 | 64 (≈ 183 µM) | 32 (≈ 91.7 µM) | > 71.7 | > 71.7 | 16 (≈ 45.9 µM) | –
9 | O=C1O/C(=C\c2ccc(-c3ccccc3)cc2)C(O)=C1c1ccc(Cl)cc1Cl [Example 65] | – | – | – | 7.33 | 252 to 256 °C | 8 (≈ 19.5 µM) | 8 (≈ 19.5 µM) | > 61.1 | 4 (≈ 9.77 µM) | 16 (≈ 39.1 µM) | 58.6 | 24.4 | < 0.125 | 36.7
10 | O=C1O/C(=C\c2ccc(-c3ccccc3)cc2)C(O)=C1c1ccc(Cl)c(Cl)c1 [Example 66] | – | – | – | 7.33 | 265 to 269 °C | 2 (≈ 4.89 µM) | 1 (≈ 2.44 µM) | 7.33 | 0.5 (≈ 1.22 µM) | 2 (≈ 4.89 µM) | 51.3 | 4.89 | < 0.125 | 12.2

— US7495027B2, “3-aryl-4-hydroxyfuranone compounds and the human and animal health use thereof” (Wyeth, priority 2003, dated 2009)
